Data as given in ChEMBL document CHEMBL4765351, “Photoeradication of bacteria with porphycenes: Substituent effects on the efficiency” (Eur J Med Chem, 2020).
Activity calls are given as the source filed them. The calls are words filed in the database; no cut-off is given here.

Assays:
[1] = Induction of hydroxy radical generation in pluronic solution irradiated with 635 nanometer LED light at 6 mW by HPF fluorescence method
[2] = tested on: Enterococcus faecalis; test: Photodynamic antibacterial activity against Enterococcus faecalis 29212 assessed as bacterial eradication by measuring log reduction at 7 uM preincubated for 30 mins in dark condition followed by 0.6 J/cm2.min LED light irradiation for 120 mins; assay type: functional
[3] = tested on: Enterococcus faecalis; test: Photodynamic antibacterial activity against Enterococcus faecalis 29212 assessed as bacterial eradication at 7 uM preincubated for 30 mins in dark condition followed by 72 J/cm2 LED light irradiation; assay type: functional
[4] = Induction of […] generation in pluronic solution irradiated with 369 nanometer LED light at 6 mW by HPF fluorescence method
[5] = Induction of singlet oxygen generation in pluronic solution in deuterated water assessed as singlet oxygen quantum yield irradiated with 635 nanometer LED light at 300 mW by spectrometric method; assay type: functional
[6] = Induction of singlet oxygen generation in toluene solution assessed as singlet oxygen quantum yield irradiated with 369 nanometer LED light at 300 mW by spectrometric method; assay type: functional
[7] = Absorption property in pluronic/PBS solution assessed as diode array corresponding wavelength of photodynamic inactivation by measuring electronic absorption spectra by spectrophotometry; assay type: physicochemical; settings: buffer
[8] = tested on: HeLa; test: Photodynamic anticancer activity against human HeLa cells; assay type: functional, cell-based
[9] = tested on: Enterococcus faecalis; test: Photodynamic antibacterial activity against Enterococcus faecalis 29212 assessed as bacterial eradication at 7 uM preincubated for 30 mins in dark condition followed by 30 J/cm2 LED light irradiation; assay type: functional, ATCC 29212; settings: 0.5 h
[10] = tested on: Enterococcus faecalis; test: Photodynamic antibacterial activity against Enterococcus faecalis 29212 assessed as bacterial eradication at 7 uM preincubated for 30 mins in dark condition followed by 0.6 J/cm2.min LED light irradiation for 50 mins; assay type: functional, ATCC 29212; settings: time 80 min, 1.333 h

SMILES | Activity [7] | Activity [1] | Activity ([2]; ATCC 29212, time 150.0 min) | Activity ([3]; ATCC 29212) | Activity [4] | Activity [5] | Activity [6] | Activity ([2]; time 150 min, 2.5 h) | Activity ([3]; 0.5 h) [%] | Activity [8] | Activity [9] [%] | Activity [10] [%]
CC(C)(C)c1cc2[nH]c1ccc1nc(c3ccc(ccc4nc2C=C4)[nH]3)C=C1 | Active | Active | – | inactive | Active | 0.23 | 0.32 | 3 | – | – | – | –
C1=Cc2nc1ccc1ccc([nH]1)c1nc(ccc3ccc2[nH]3)C=C1 | Active | Active | – | – | Active | 0.28 | 0.3 | – | – | Active | 100 | 100

More lines, main results first:

Activity [7] | SMILES | Activity [1] | Activity ([2]; ATCC 29212, time 150.0 min) | Activity ([3]; ATCC 29212) | Activity [4] | Activity [5] | Activity [6] | Activity ([2]; time 150 min, 2.5 h) | Activity ([3]; 0.5 h) [%] | Activity [8] | Activity [9] [%] | Activity [10] [%]
Active | CC(C)(C)C1=Cc2nc1ccc1ccc([nH]1)c1nc(ccc3[nH]c2cc3C(C)(C)C)C=C1 | Active | inactive | inactive | Active | 0.22 | 0.36 | – | – | – | – | –
Active | COCCC1=Cc2nc1ccc1[nH]c(cc1CCOC)c1nc(ccc3[nH]c2cc3CCOC)C(CCOC)=C1 | Active | – | – | Active | 0.23 | 0.32 | 6 | 100 | Active | – | –
Active | CC(C)(C)C1=Cc2nc1ccc1[nH]c(cc1C(C)(C)C)c1nc(ccc3[nH]c2cc3C(C)(C)C)C(C(C)(C)C)=C1 | Active | inactive | inactive | Active | 0.21 | 0.38 | – | – | inactive | – | –
